pIC50: −log10 of the molar value.
Columns and labels:
[1] = molecular target: T1, PRMT5 (Homo sapiens, UniProt O14744); test: PRMT5 biochemical IC50 assay with MTA as cofactor; settings: PRMT5, MTA as cofactor; read-out: MTA IC50
T1 construct: purchased Viva (custom protein)

[2] = system: HAP1 MTAP-deleted cell line; test: SDMA in-cell western assay, HAP1 MTAP-deleted; format: cell-based; settings: for pIC50: Homo sapiens, HAP1, SDMA in-cell western, HAP1 MTAP-deleted, read-out: HAP1 MTAP deleted IC50; for MTAP intact/deleted ratio: IC50 ratio HAP1 MTAP-intact vs HAP1 MTAP-deleted, SDMA in-cell western
Method in brief: (§1)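 IC50 values come from SDMA signal quantified by in-cell western in two HAP1 lines, one with native MTAP levels and one lacking MTAP.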

[3] = molecular target: T1, PRMT5; test: PRMT5 biochemical IC50 assay with no cofactor; settings: PRMT5, no cofactor; read-out: No Cofactor/rel IC50
Description: Table 1 indicates IC50 values (μM) against PRMT5 for exemplary compounds in the presence of SAM as cofactor, with no cofactor, and with MTA as cofactor, respectively (columns 4-6). […] Ki values can be calculated from the IC50 values as described in the Examples section. As detailed in the Examples section, for the assay performed in the presence of SAM, IC50=Ki×1.5 (Ki=IC50/1.5).

[4] = system: HAP1 MTAP-deleted cell line; test: Viability assay, MTAP-deleted cell line; format: cell-based; settings: Homo sapiens, HAP1, viability assay, MTAP-deleted cell line; read-out: HAP1 MTAP deleted viability
Description: Table 1 additionally indicates IC50 values in a viability assay for the MTAP-deleted cell line (column 10), indicating the effect of treatment with compound on cell survival.

[5] = molecular target: T1, PRMT5; test: PRMT5 biochemical IC50 assay with SAM as cofactor; settings: PRMT5, SAM as cofactor; read-out: SAM IC50
[6] = system: HAP1 MTAP-intact cell line; test: SDMA in-cell western assay, HAP1 MTAP-intact; format: cell-based; settings: Homo sapiens, HAP1, SDMA in-cell western, HAP1 MTAP-intact; read-out: MTAP HAP1 intact IC50
Method in brief: as §1

T1 sequence (O14744 whole entry): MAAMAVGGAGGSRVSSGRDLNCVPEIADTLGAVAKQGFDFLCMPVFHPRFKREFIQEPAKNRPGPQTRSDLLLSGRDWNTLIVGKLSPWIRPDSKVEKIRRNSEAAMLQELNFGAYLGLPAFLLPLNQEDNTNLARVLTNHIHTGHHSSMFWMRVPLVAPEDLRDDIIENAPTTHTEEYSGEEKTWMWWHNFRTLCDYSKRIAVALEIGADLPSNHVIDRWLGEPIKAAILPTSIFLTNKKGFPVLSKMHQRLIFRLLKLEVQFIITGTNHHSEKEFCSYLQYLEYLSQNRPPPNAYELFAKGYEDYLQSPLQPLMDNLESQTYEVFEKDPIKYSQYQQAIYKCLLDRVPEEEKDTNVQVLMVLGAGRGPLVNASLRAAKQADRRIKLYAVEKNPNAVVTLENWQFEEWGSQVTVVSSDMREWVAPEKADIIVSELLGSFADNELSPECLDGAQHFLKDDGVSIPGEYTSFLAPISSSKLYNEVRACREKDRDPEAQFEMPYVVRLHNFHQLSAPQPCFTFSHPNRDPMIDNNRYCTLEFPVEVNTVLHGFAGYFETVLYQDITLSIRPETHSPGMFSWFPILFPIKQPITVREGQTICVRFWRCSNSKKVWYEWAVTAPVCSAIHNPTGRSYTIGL
T1 sequence (Q9BQA1 whole entry partner): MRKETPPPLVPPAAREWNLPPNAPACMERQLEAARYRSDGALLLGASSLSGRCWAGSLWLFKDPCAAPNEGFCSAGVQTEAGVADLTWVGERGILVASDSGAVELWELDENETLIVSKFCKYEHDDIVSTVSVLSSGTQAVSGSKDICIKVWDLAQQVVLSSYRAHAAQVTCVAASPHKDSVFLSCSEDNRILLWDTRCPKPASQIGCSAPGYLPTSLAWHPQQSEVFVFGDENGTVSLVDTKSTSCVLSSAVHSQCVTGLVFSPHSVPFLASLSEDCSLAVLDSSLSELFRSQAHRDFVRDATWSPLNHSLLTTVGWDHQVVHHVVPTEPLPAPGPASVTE

CCc1cc(NC(=O)C(=O)N2C[C@@H](C)CC[C@@H]2c2ccc3nn([C@H]4CCN(C)C4)cc3c2)cnc1N (racemic) [Compound 1091, N-(6-Amino-5-ethyl-3-pyridyl)-2-oxo-2-[rac-(2R,5S)-5-methyl-2-[2-[rac-(3S)-1-methylpyrrolidin-3-yl]indazol-5-yl]-1-piperidyl]acetamide]
pIC50 [1]: > 7.30 | pIC50 [2]: > 7.00 | MTAP intact/deleted ratio [2]: A (an IC50 ratio greater than or equal to 10 fold) | pIC50 [3]: > 7.30 | pIC50 [4]: > 6.00 | pIC50 [5]: 6.30 to 7.30 | pIC50 [6]: 6.00 to 7.00

CCc1cc(NC(=O)C(=O)N2C[C@@H](C)[C@@H](OC(C)C)C[C@@H]2c2ccc3scnc3c2)cnc1N (racemic) [Compound 1094, N-(6-Amino-5-ethyl-3-pyridyl)-2-[(2S,4R,5S)-2-(1,3-benzothiazol-5-yl)-4-isopropoxy-5-methyl-1-piperidyl]-2-oxo-acetamide]
pIC50 [1]: 6.30 to 7.30 | pIC50 [2]: > 7.00 | MTAP intact/deleted ratio [2]: A (an IC50 ratio greater than or equal to 10 fold) | pIC50 [3]: 6.30 to 7.30 | pIC50 [4]: > 6.00 | pIC50 [5]: 6.30 to 7.30 | pIC50 [6]: 6.00 to 7.00

CCc1cc(NC(=O)C(=O)N2C[C@@H](C)CC[C@@H]2c2ccc3cn(C4CCN(C)CC4)nc3c2)cnc1N (racemic) [Compound 1096, N-(6-Amino-5-ethyl-3-pyridyl)-2-oxo-2-[rac-(2R,5S)-5-methyl-2-[2-(1-methyl-4-piperidyl)indazol-6-yl]-1-piperidyl]acetamide]
pIC50 [1]: > 7.30 | pIC50 [2]: > 7.00 | MTAP intact/deleted ratio [2]: A (an IC50 ratio greater than or equal to 10 fold) | pIC50 [3]: > 7.30 | pIC50 [4]: > 6.00 | pIC50 [5]: > 7.30 | pIC50 [6]: > 7.00

CCc1cc(NC(=O)C(=O)N2CC(C)CCC2c2ccc3sc(C4CCN(C)CC4C)nc3c2)cnc1N (racemic) [Compound 1098, N-(6-amino-5-ethyl-3-pyridyl)-2-oxo-2-[rac-(2R,5S)-5-methyl-2-[2-[rac-(3R,4S)-1,3-dimethyl-4-piperidyl]-1,3-benzothiazol-5-yl]-1-piperidyl]acetamide]
pIC50 [1]: > 7.30 | pIC50 [2]: > 7.00 | MTAP intact/deleted ratio [2]: B (an IC50 ratio greater than or equal to 3 fold but lower than 10 fold) | pIC50 [3]: > 7.30 | pIC50 [4]: > 6.00 | pIC50 [5]: > 7.30 | pIC50 [6]: > 7.00

CCc1cc(NC(=O)C(=O)N2C[C@@H](C)CC[C@@H]2c2ccc(N3CCN(C)C[C@@H]3C)nc2)cnc1N (racemic) [Compound 1099, N-(6-amino-5-ethyl-3-pyridyl)-2-[(2R,5S)-2-[6-[(2S)-2,4-dimethylpiperazin-1-yl]-3-pyridyl]-5-methyl-1-piperidyl]-2-oxo-acetamide]
pIC50 [1]: > 7.30 | pIC50 [2]: > 7.00 | MTAP intact/deleted ratio [2]: A (an IC50 ratio greater than or equal to 10 fold) | pIC50 [3]: > 7.30 | pIC50 [4]: > 6.00 | pIC50 [5]: 6.30 to 7.30 | pIC50 [6]: 6.00 to 7.00

Cc1cc(NC(=O)C(=O)N2C[C@@H](C)CC[C@@H]2c2ccc3sc(-c4cnn(C)c4)nc3c2)cnc1N (racemic) [Compound 1104, rac-N-(6-amino-5-methylpyridin-3-yl)-2-((2R,5S)-5-methyl-2-(2-(1-methyl-1H-pyrazol-4-yl)benzo[d]thiazol-5-yl)piperidin-1-yl)-2-oxoacetamide]
pIC50 [1]: > 7.30 | pIC50 [2]: > 7.00 | MTAP intact/deleted ratio [2]: B (an IC50 ratio greater than or equal to 3 fold but lower than 10 fold) | pIC50 [3]: > 7.30 | pIC50 [4]: > 6.00 | pIC50 [5]: 6.30 to 7.30 | pIC50 [6]: > 7.00

Cc1cc(NC(=O)C(=O)N2C[C@H](C)CC[C@H]2c2ccc(N3CCN(C)CC3)cc2)cnc1N (racemic) [Compound 1105, rac-N-(6-Amino-5-methyl-3-pyridyl)-2-[(2R,5S)-5-methyl-2-[4-(4-methylpiperazin-1-yl)phenyl]-1-piperidyl]-2-oxo-acetamide]
pIC50 [1]: 6.30 to 7.30 | pIC50 [2]: > 7.00 | MTAP intact/deleted ratio [2]: A (an IC50 ratio greater than or equal to 10 fold) | pIC50 [3]: 6.30 to 7.30 | pIC50 [4]: > 6.00 | pIC50 [5]: 6.30 to 7.30 | pIC50 [6]: 6.00 to 7.00

CCc1cc(NC(=O)C(=O)N2C[C@@H](C)CC[C@@H]2c2ccc3sc(C4CCN(C)C(=O)C4)nc3c2)cnc1N (mixture of isomers) [Compound 1110, N-(6-amino-5-ethylpyridin-3-yl)-2-((2R,5S)-5-methyl-2-(2-(1-methyl-2-oxopiperidin-4-yl)benzo[d]thiazol-5-yl)piperidin-1-yl)-2-oxoacetamide]
pIC50 [1]: > 7.30 | pIC50 [2]: > 7.00 | MTAP intact/deleted ratio [2]: A (an IC50 ratio greater than or equal to 10 fold) | pIC50 [3]: > 7.30 | pIC50 [4]: > 6.00 | pIC50 [5]: 6.30 to 7.30 | pIC50 [6]: 6.00 to 7.00

Cc1cc(NC(=O)C(=O)N2C[C@@H](C)CC[C@@H]2c2ccc3sc([C@H]4CCN(C)C(C)(C)C4)nc3c2)cnc1C (racemic) [Compound 1113, N-(5,6-dimethyl-3-pyridyl)-2-oxo-2-[(2R,5S)-5-methyl-2-[2-[(4S)-1,2,2-trimethyl-4-piperidyl]-1,3-benzothiazol-5-yl]-1-piperidyl]acetamide]
pIC50 [1]: > 7.30 | pIC50 [2]: > 7.00 | MTAP intact/deleted ratio [2]: A (an IC50 ratio greater than or equal to 10 fold) | pIC50 [3]: > 7.30 | pIC50 [4]: > 6.00 | pIC50 [5]: > 7.30 | pIC50 [6]: 6.00 to 7.00

COc1ncc(NC(=O)C(=O)N2C[C@@H](C)CC[C@@H]2c2ccc3nn(C4CCN(C)CC4)cc3c2)cc1C(N)=O (racemic) [Compound 1115, 2-Methoxy-5-[[2-oxo-2-[rac-(2R,5S)-5-methyl-2-[2-(1-methyl-4-piperidyl)indazol-5-yl]-1-piperidyl]acetyl]amino]pyridine-3-carboxamide]
pIC50 [1]: > 7.30 | pIC50 [2]: > 7.00 | MTAP intact/deleted ratio [2]: A (an IC50 ratio greater than or equal to 10 fold) | pIC50 [3]: > 7.30 | pIC50 [4]: > 6.00 | pIC50 [5]: > 7.30 | pIC50 [6]: 6.00 to 7.00

COc1ncc(NC(=O)C(=O)N2C[C@@H](C)CC[C@@H]2c2ccc3sc([C@@H]4CCN(C)C[C@H]4C)nc3c2)cc1C(N)=O (racemic) [Compound 1127, 2-methoxy-5-[[2-oxo-2-[rac-(2R,5S)-5-methyl-2-[2-[rac-(3S,4R)-1,3-dimethyl-4-piperidyl]-1,3-benzothiazol-5-yl]-1-piperidyl]acetyl]amino]pyridine-3-carboxamide]
pIC50 [1]: > 7.30 | pIC50 [2]: > 7.00 | MTAP intact/deleted ratio [2]: A (an IC50 ratio greater than or equal to 10 fold) | pIC50 [3]: > 7.30 | pIC50 [4]: > 6.00 | pIC50 [5]: > 7.30 | pIC50 [6]: > 7.00

CCc1cc(NC(=O)C(=O)N2CC(C)CCC2c2ccc3sc(C4CCN(C)CC4C)nc3c2)cnc1N (racemic) [Compound 1131, N-(6-amino-5-ethyl-3-pyridyl)-2-oxo-2-[rac-(2R,5S)-5-methyl-2-[2-[rac-(3R,4R)-1,3-dimethyl-4-piperidyl]-1,3-benzothiazol-5-yl]-1-piperidyl]acetamide]
pIC50 [1]: > 7.30 | pIC50 [2]: > 7.00 | MTAP intact/deleted ratio [2]: B (an IC50 ratio greater than or equal to 3 fold but lower than 10 fold) | pIC50 [3]: > 7.30 | pIC50 [4]: > 6.00 | pIC50 [5]: > 7.30 | pIC50 [6]: > 7.00

CCc1cc(NC(=O)C(=O)N2C[C@@H](C)[C@@H](OC)C[C@@H]2c2cccc(OCCN(C)C)c2)cnc1N (racemic) [Compound 1139, N-(6-amino-5-ethyl-3-pyridyl)-2-oxo-2-[rac-(2R,4S,5R)-2-[3-[2-(dimethylamino)ethoxy]phenyl]-4-methoxy-5-methyl-1-piperidyl]acetamide]
pIC50 [1]: 6.30 to 7.30 | pIC50 [2]: > 7.00 | MTAP intact/deleted ratio [2]: B (an IC50 ratio greater than or equal to 3 fold but lower than 10 fold) | pIC50 [3]: 6.30 to 7.30 | pIC50 [4]: > 6.00 | pIC50 [5]: 6.30 to 7.30 | pIC50 [6]: > 7.00

CCc1cc(NC(=O)C(=O)N2C[C@@H](C)CC[C@@H]2c2ccc3nn(C4CC(C)(C)N(C)C(C)(C)C4)cc3c2)cnc1N (racemic) [Compound 1140, N-(6-Amino-5-ethyl-3-pyridyl)-2-oxo-2-[rac-(2R,5S)-5-methyl-2-[2-(1,2,2,6,6-pentamethyl-4-piperidyl)indazol-5-yl]-1-piperidyl]acetamide]
pIC50 [1]: > 7.30 | pIC50 [2]: > 7.00 | MTAP intact/deleted ratio [2]: A (an IC50 ratio greater than or equal to 10 fold) | pIC50 [3]: > 7.30 | pIC50 [4]: > 6.00 | pIC50 [5]: > 7.30 | pIC50 [6]: > 7.00

COc1ncc(NC(=O)C(=O)N2C[C@@H](C)CC[C@@H]2c2ccc3nn([C@@H]4CCN(C)C4)cc3c2)cc1C(N)=O (racemic) [Compound 1141, 2-Methoxy-5-[[2-oxo-2-[rac-(2R,5S)-5-methyl-2-[2-[rac-(3R)-1-methylpyrrolidin-3-yl]indazol-5-yl]-1-piperidyl]acetyl]amino]pyridine-3-carboxamide]
pIC50 [1]: > 7.30 | pIC50 [2]: > 7.00 | MTAP intact/deleted ratio [2]: A (an IC50 ratio greater than or equal to 10 fold) | pIC50 [3]: > 7.30 | pIC50 [4]: > 6.00 | pIC50 [5]: 6.30 to 7.30 | pIC50 [6]: 6.00 to 7.00

— patent publication US11999727B2 (Tango Therapeutics, Inc., priority 2020, dated 2024)
